Results published in US20240082212A1, “USE OF MDMA FOR TREATMENT OF STRESS-RELATED DISORDERS” (priority 2022, published 2024).
Entries after “also recorded” stand apart in the source; their conditions may differ.

Assays:
[1] = biological target: Serotonin 5-HT2B (Homo sapiens, UniProt P41595); experiment: Eurofins Panlabs radioligand binding panel, serotonin 5-HT2B
[2] = test system: cortical neurons; experiment: Neurite outgrowth in embryonic rat cortical neuron cultures; format: cell-based; settings: 3 days, vs 0.1% sterile water vehicle
From the text: Female Wistar rats of 17 days gestation were killed by cervical dislocation and the fetuses (typically 6 to 8 in number) were removed from the uteri. Fetal brains were placed in ice-cold medium of Leibovitz (L15, Gibco, France). Cortex was dissected and meninges were carefully removed. The cortical neurons were dissociated by trypsinization (trypsin-EDTA, Gibco) in the presence of DNAse I (Roche, France). The reaction was stopped by addition of Dulbecco's Modified Eagle Medium (DMEM; Gibco) with 10% of fetal bovine serum (FBS; Gibco). The suspension was triturated with a 10-ml pipette and a 21-gauge needle syringe and centrifuged. The pellet of dissociated cells was resuspended in a medium consisting of Neurobasal (Gibco) supplemented with 2% B27 supplement (Gibco), 0.5 mM L-Glutamine (Gibco), and an antibiotic-antimycotic mixture. Viable cells were counted in a Neubauer cytometer and cells were seeded in 96-well plates (Costar) precoated with poly-L-lysine at 10,000 cells/well. […] Stock solutions were prepared in sterile water at 10 mM and stored at −20° C. until used. Further dilutions were prepared in culture in the medium on the day of the treatment. 0.1% Sterile water was present in all tested conditions.
The experimental protocol was performed in two independent cultures (i.e., from two different pregnant rats). For each culture, each condition was tested in sextuplet (6 wells per condition per culture for a total of 12 wells per condition). […] After three days of plating and compound treatment (Day 3), cultures were fixed with paraformaldehyde in phosphate buffered saline at 4° C. (PBS, 4%, Sigma). All subsequent steps were performed at room temperature. Cells were successively permeabilized for 30 minutes using 0.1% triton, saturated with PBS containing 3% bovine serum albumin (BSA) and incubated for 1 hour with anti-beta III tubulin antibody (T5168, Sigma). […] Finally, nuclei were stained with 4′-6-diamidino-2-phenylindole (DAPI). After rinsing the cells with PBS, the plate was imaged and neurite networks were examined and analyzed using a High-Content Screening platform (CellInsight CXS, Thermo Scientific) with integrated Photometrics high-resolution fluorescent camera, Olympus objective (10×) and HCS Studio Cell Analysis Software. Approximately 2,000 neurons per well were analyzed using a validated cortex neuron outgrowth algorithm that utilizes parameters optimized for analysis of embryonic rat cortical neuron cultures. The HCS Studio Cell Analysis Software output included values for neurite total count (#), neurite total length (μm) and total number of branch points (#) for each of the 6 wells per culture. The evaluation of neurite outgrowth was performed using the average number of neurites per neuron (#), the average of total neurite length per neuron (μm) and the average number of branch points per neuron (#) across 12 wells. Data also was transformed to percent (%) of the average vehicle control value. Results were expressed as mean (±s.e.m.) of the transformed (% of vehicle control) data. Statistical analyses were performed on transformed percent of the average vehicle control data for each measure for each test article using one-way analysis of variance (Anova, StatView). Where applicable, Dunnett's test was used for multiple pairwise comparisons to the negative control (vehicle) condition. […] The level of significance was set at p value less than or equal to 0.05 (*p<0.05).

[3] = test system: CD (Sprague Dawley) rats; experiment: Rat functional observation battery (FOB) neurobehavioral evaluation after cumulative SC dosing; format: in vivo
Description: The observations were assessed through a rat functional observation battery (FOB) and continuous physiological measurements on the day of cumulative dosing, which are provided in further detail below.
Methods. A total of 42 adult male CD® (Sprague Dawley) rats (Charles River Laboratories) were surgically implanted with DSI radiotelemetry devices by personnel at Charles River Laboratories Raleigh, NC, per their test site SOPs. Telemetry devices supported continuous recording of temperature, activity, blood pressure and heart rate. Telemeterized rats were shipped to the Charles River Laboratories testing facility (Mattawan, MI) and acclimated to the environment for at least 1 week prior to experimentation. Animals were pair-housed in solid bottom cages with nonaromatic bedding. On the dosing day, animals were singly housed and then returned to the paired cohort following the dosing/telemetry recording phase. Diet (Lab Diet® Certified Rodent Diet #5CR4) and tap water via an automatic water system were available ad libitum, except during designated procedures. Temperature and humidity were maintained according to the Testing Facility SOP. Animals were randomized into treatment groups using a standard, by weight, measured value randomization procedure. Body weight was determined for each rat prior to dosing.
As illustrated in the Table, a total of 36 rats were included in the study. The vehicle and 2 test article doses were administered in a volume of 1 mL/kg to each of 3 groups of n=12 telemeterized rats via subcutaneous injection four times on a given day, followed by neurobehavioral evaluations. This series was repeated 3 times on study. Each group received all 3 dose levels of the applicable test or control article in ascending order with a 1-week washout between dose levels.
Mortality/cage side clinical observations were conducted for all study animals at least twice daily beginning upon receipt through termination, except on days of receipt and termination where frequency was at least once daily. Detailed clinical observations were conducted for all study animals prior to each of the four cumulative doses in a series. Individual body weights were conducted for all study animals at transfer, prior to randomization, on the day of dosing on each of the 3 cycles of dosing. The body weights recorded at transfer and prior to randomization are not reported but are maintained in the study file. Veterinary care was available throughout the course of the study, and animals were examined by the veterinary staff as needed based on clinical signs or other changes. All animals were provided with HydroGel the night prior to their respective dosing days to potentially mitigate any animal welfare issues related to fluid loss/dehydration.
Neurobehavioral evaluations (blinded) were conducted for all study animals 1 hour following the last (4th) cumulative dose of the series. The neurobehavioral parameters evaluated included: activity measurements (arousal/alertness, posture/body carriage, stereotypy, rearing, and appearance), autonomic measurements (exophthalmus, lacrimation, erected fur, pupil response, salivation, defecation, and palpebral closure/ptosis), excitability measurements (vocalizations, startle response, ease of removal, handling reactivity, and convulsions), neuromuscular measurements (gait/mobility, grip strength/response, air righting reflex, tremor, and body tone), physiological measurements (respiration and body temperature), and sensorimotor measurements (touch response/tactile reflex and thermal response).

[4] = 1 h after last of 4 hourly SC injections, R-MDMA and racemic MDMA 10, 20 mg/kg/day, S-MDMA 5, 10 mg/kg/day
[5] = FOB, cumulative SC dosing, dose groups stated in the value

Sequence of Serotonin 5-HT2B (P41595 whole entry): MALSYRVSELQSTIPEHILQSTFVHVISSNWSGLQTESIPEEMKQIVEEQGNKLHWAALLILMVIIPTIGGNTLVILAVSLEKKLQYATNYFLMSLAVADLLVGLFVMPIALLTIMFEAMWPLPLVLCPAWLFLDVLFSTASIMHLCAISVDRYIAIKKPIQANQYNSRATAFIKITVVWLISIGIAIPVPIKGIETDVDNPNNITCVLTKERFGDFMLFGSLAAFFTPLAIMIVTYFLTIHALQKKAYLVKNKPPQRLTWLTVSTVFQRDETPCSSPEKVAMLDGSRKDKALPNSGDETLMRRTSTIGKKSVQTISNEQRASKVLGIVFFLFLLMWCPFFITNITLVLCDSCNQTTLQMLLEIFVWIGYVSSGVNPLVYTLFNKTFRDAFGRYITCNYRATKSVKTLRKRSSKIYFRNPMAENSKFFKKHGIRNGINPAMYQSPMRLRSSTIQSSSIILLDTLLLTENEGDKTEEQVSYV

## CNC(C)Cc1ccc2c(c1)OCO2 (single isomer, unassigned) [R-MDMA, R(−)-3,4-methylenedioxymethamphetamine]
[1]; 10 uM, read-out: % inhibition of binding or activity
  inhibition at 10 µM: 79%
[1]; IC50, 10 half-log concentrations, 0.3 nM to 10 μM, duplicate
  IC50: 1400 nM
[1]; Ki, 10 half-log concentrations, 0.3 nM to 10 μM, duplicate
  Ki: 890 nM
[2]; 0.0001 μM
  neurite number (#): significantly increased
[2]; 10 μM
  neurite number (#): significantly increased
  neurite total length (μm): significantly increased
  total number of branch points (#): significantly increased
[3]; [4]
  arousal/alertness and rearing: dose-dependent decreases in arousal/alertness and rearing
  ease of removal from the home cage and handling reactivity (excitability): Dose-dependent increased difficulty in removal from the home cage and increased handling reactivity
  forelimb grip strength: dose-dependent statistically significant decreases in forelimb grip strength
  salivation and erected fur (autonomic): Dose-dependent increased salivation and erected fur
  unkempt appearance: increased incidence of unkempt appearance in a dose-dependent manner
[3]; 1 h after last of 4 hourly SC injections, highest doses: S-MDMA 10, racemic-MDMA 20 mg/kg/day, R-MDMA 10, 20 mg/kg/day
  stereotypies (mouth movements/weaving, circling/retropulsion, sniffing): No stereotypical behaviors were reported
[3]; [5]
  Rank Order Activity Measurement Effects: S-MDMA (5 mg/kg/day) < R-MDMA (10 mg/kg/day) < Rac.-MDMA (10 mg/kg/day); also recorded: Rac.-MDMA (20 mg/kg/day) < S-MDMA (10 mg/kg/day) < R-MDMA (20 mg/kg/day); also recorded: R-MDMA (0 mg/kg/day) < R-MDMA (10 mg/kg/day) < R-MDMA (20 mg/kg/day); also recorded: Rac.-MDMA (20 mg/kg/day) < S-MDMA (10 mg/kg/day) < R-MDMA (10 mg/kg/day)
  Rank Order Autonomic Measurement Effects: R-MDMA (10 mg/kg/day) < S-MDMA (5 mg/kg/day) < Rac.-MDMA (10 mg/kg/day); also recorded: R-MDMA (20 mg/kg/day) < S-MDMA (10 mg/kg/day) < Rac-MDMA (20 mg/kg/day); also recorded: R-MDMA (0 mg/kg/day) < R-MDMA (10 mg/kg/day) < R-MDMA (20 mg/kg/day); also recorded: R-MDMA (10 mg/kg/day) < S-MDMA (10 mg/kg/day) = Rac-MDMA (20 mg/kg/day)
  Rank Order Excitability Measurement Effects: R-MDMA (10 mg/kg/day) < S-MDMA (5 mg/kg/day) < Rac.-MDMA (10 mg/kg/day); also recorded: R-MDMA (20 mg/kg/day) = S-MDMA (10 mg/kg/day) < Rac-MDMA (20 mg/kg/day); also recorded: R-MDMA (0 mg/kg/day) < R-MDMA (10 mg/kg/day) < R-MDMA (20 mg/kg/day); also recorded: R-MDMA (10 mg/kg/day) < S-MDMA (10 mg/kg/day) < Rac-MDMA (20 mg/kg/day)
  Rank Order Neuromuscular Measurement Effects: R-MDMA (10 mg/kg/day) < S-MDMA (5 mg/kg/day) < Rac.-MDMA (10 mg/kg/day); also recorded: R-MDMA (20 mg/kg/day) = S-MDMA (10 mg/kg/day) < Rac-MDMA (20 mg/kg/day); also recorded: R-MDMA (0 mg/kg/day) < R-MDMA (10 mg/kg/day) < R-MDMA (20 mg/kg/day); also recorded: R-MDMA (10 mg/kg/day) < S-MDMA (10 mg/kg/day) < Rac-MDMA (20 mg/kg/day)
  Rank Order Physiological Measurement Effects: R-MDMA (10 mg/kg/day) < S-MDMA (5 mg/kg/day) < Rac.-MDMA (10 mg/kg/day); also recorded: R-MDMA (20 mg/kg/day) < S-MDMA (10 mg/kg/day) = Rac-MDMA (20 mg/kg/day); also recorded: R-MDMA (0 mg/kg/day) = R-MDMA (10 mg/kg/day) = R-MDMA (20 mg/kg/day); also recorded: R-MDMA (10 mg/kg/day) < S-MDMA (10 mg/kg/day) = Rac-MDMA (20 mg/kg/day)
  Rank Order Sensorimotor Measurement Effects: S-MDMA (5 mg/kg/day) < Rac-MDMA (10 mg/kg/day) < R-MDMA (10 mg/kg/day); also recorded: S-MDMA (10 mg/kg/day) < Rac-MDMA (20 mg/kg/day) < R-MDMA (20 mg/kg/day); also recorded: R-MDMA (0 mg/kg/day) < R-MDMA (10 mg/kg/day) < R-MDMA (20 mg/kg/day)
[3]; at levels at least two-fold that of vehicle-treated groups, 1 h after last of 4 hourly SC injections
  thermal response times: Statistically significant increases in thermal response times
